Columns and labels:
contact hypersensitivity = details: mice; cited from earlier work
leukocyte adhesion to HA = details: cited from earlier work
S. aureus PS80 = assay: Modified NCCLS macrodilution broth method, antimicrobial activity; format: cell-based, Staphylococcus aureus; details: 1, 10 and 100 ug/mL; quantitative cultures at 4, 8, 24 h; vs controls without HABPs
Procedure: The antimicrobial activity of HABP35 and HABP53 was determined using a modified National Committee for Clinical Laboratory Standards (NCCLS) macrodilution broth method. S. aureus PS80 was grown overnight on tryptic soy agar plates containing 5% sheep blood. Colonies were suspended in sterile saline and dilutions made to achieve a final concentration of 5×10^5 CFU/ml in each tube containing 5 ml of Mueller-Hinton and BP35 or 53. The HABPs were tested at 1, 10, and 100 ug/mL concentrations. Once inoculated, the tubes were incubated in ambient air at 37° C. and bacterial concentration determined at 4, 8, and 24 hours. Modification of testing parameters included the 10 fold dilution of the HABPs and the determination of bacterial counts at 4, 8 and 24 hours rather than the visual determination of growth or inhibition.

S. aureus strain PS80 = assay: Mouse model of S. aureus surgical wound infection; format: in vivo, C57BL6 mice
Procedure: Bacterial strains. S. aureus strain PS80 (serotype 8) was obtained from the American Type Culture collection (#27700) and is a potent inducer of intraabdominal abscess formation. S. aureus COL is a methicillin resistant strain that produces a serotype 5 capsule. Staphylococci were cultivated for 24 h at 37° C. on Columbia agar (Difco Laboratories, Detroit, Mich.) supplemented with 2% NaCl.
Mouse model of S. aureus wound infection. Mice (C57BL6, male, 6-8 wk old) were obtained from Jackson Laboratories (Bar Harbor, Me.). Groups of mice (N=4/group/experiment) were anesthetized with 100 mg/kg ketamine and 10 mg/kg xylazine, their right thighs were shaved, and the surgical area was disinfected with iodine and 70% ethanol. An incision was made in the skin to expose the thigh muscle, and a 1-cm incision was made with a scalpel into the thigh muscle to the depth of the bone. The muscle was then closed with one 4-0 silk suture, and 10 μl of a S. aureus suspension ranging in dose from 10^2 to 10^4 CFU was introduced into the incision under the suture. The skin was closed with four additional Prolene sutures. The mice were euthanized at 3 days post-surgery. The wounded muscle tissue was excised, weighed (˜0.08 g), and homogenized in 1 ml of tryptic soy broth. Serial dilutions of the homogenates were plated in duplicate and results were expressed as CFU/g tissue. Peptides were administered to animals in two ways. For most experiments, HABPs were solubilized in PBS and administered with a pipet into the wound in a 10 μl volume following challenge with bacteria. A 100 μg dose was used for most experiments. For therapeutic studies, peptide was administered via a 1 ml tuberculin syringe fitted with a 25 gauge needle in a 0.25 ml volume injected into the thigh muscle containing the wound distal from the incision site.
Gross pathology and histologic analysis of host response. […] Histological examination of these wounds confirmed these findings. Muscle tissue was harvested from mice at designated intervals post-surgery, fixed in 10% buffered formalin, and mounted in paraffin; 5 to 6-μm sections were cut and stained with hematoxylin and eosin for microscopic examination. […] The cellular infiltrate was primarily comprised of PMNs and fibrin.
Statistical analyses. All animal experiments were performed at least two times and the data pooled. Comparison of S. aureus CFU/g tissue was made by the Welch modification of the unpaired Student t test (InStat, GraphPad Software, San Diego, Calif.).

Sequence: GAHWQFNALTVRGGGS [HABP52]
- contact hypersensitivity responses (contact hypersensitivity): inhibits contact hypersensitivity responses
- leukocyte adhesion to HA (leukocyte adhesion to HA): inhibit leukocyte adhesion to HA
- growth of S. aureus (S. aureus PS80): not inhibited
- bacterial burden at the wound site compared with PBS (S. aureus strain PS80; 100 μg into wound at time of challenge with 10^2 CFU, 3 days later): significant decrease
- log reduction in bacterial numbers vs PBS (S. aureus strain PS80; challenge with 10^3 CFU, 3 days): ~3 log

Source: patent US8044022B2, “Hyaluronic acid binding peptides enhance host defense against pathogenic bacteria” (priority 2005, dated 2011)
